Source: ChEMBL document CHEMBL1201862, “PubChem BioAssay data set” (2004)
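Values below derive from 48-hour exposures of cells grown in 96-well plates, with endpoints linearly interpolated between the two concentrations bracketing the appropriate inhibition level. GI50 = concentration required for 50% inhibition of growth.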 Active and inactive are the calls of the source. No stated cut-off is given here; in the data, active = GI50 up to about 1.1 µM and inactive = higher.

Key:
Experiment in all cases: inhibition of tumour cell growth, NCI panel, 48 h
[1] = test system: T47D
[2] = test system: Hs-578T
[3] = test system: EKVX
[4] = test system: BT-549
[5] = test system: PC-3
[6] = test system: HCC 2998
[7] = test system: IGROV-1
[8] = test system: SNB-19
[9] = test system: SW-620
[10] = test system: ACHN
[11] = test system: MCF7
[12] = test system: LOX IMVI
[13] = test system: CAKI-1
[14] = test system: SN12C
[15] = test system: SK-OV-3
[16] = test system: MDA-N
[17] = test system: M14
[18] = test system: 786-0
[19] = test system: RPMI-8226

Measured: GI50

COc1cc(/N=C(\N)N=C(N)N)c2ncccc2c1
inactive: [1] 29.9 µM | [2] 98.4 µM | [3] > 100 µM | [4] 78.5 µM | [5] > 100 µM | [6] > 100 µM | [7] > 100 µM | [8] 50.4 µM | [9] > 100 µM | [10] > 100 µM | [11] > 100 µM | [12] > 100 µM | [13] > 100 µM | [14] 62.1 µM | [15] > 100 µM | [16] > 100 µM | [17] > 100 µM | [18] 64.6 µM

NC(=O)c1nc[nH]c1/N=N/SCC(N)C(=O)O (centres undefined)
inactive: [1] > 60.5 µM | [2] > 56.9 µM | [3] > 75.7 µM | [4] > 90.8 µM | [5] 15.7 µM | [6] 4.06 µM | [7] 12.8 µM | [8] > 100 µM | [9] 16.4 µM | [10] 13 µM | [11] 97.7 µM | [12] 2.61 µM | [13] 4.21 µM | [14] 6.73 µM | [15] 2.88 µM | [17] 2.81 µM | [18] 19.4 µM | [19] 6.24 µM

CCOC(=O)c1c(N2CCCC2)ncn(Cc2ccccc2)c1=S
inactive: [1] 93.8 µM | [2] > 100 µM | [3] > 100 µM | [4] > 100 µM | [5] 90.4 µM | [6] > 100 µM | [7] > 100 µM | [8] > 100 µM | [9] > 100 µM | [10] 95.1 µM | [12] > 100 µM | [13] 30.6 µM | [14] > 100 µM | [15] > 100 µM | [16] > 100 µM | [17] > 100 µM | [18] > 100 µM | [19] > 100 µM

c1ccc(/N=C2\C(=N/c3ccccc3)N(C3CCCCC3)/C(=N\C3CCCCC3)N2c2ccccc2)cc1
inactive: [1] 49.9 µM | [2] > 100 µM | [3] > 100 µM | [4] > 100 µM | [5] > 100 µM | [6] > 100 µM | [7] > 100 µM | [8] > 100 µM | [9] > 100 µM | [10] > 100 µM | [11] > 100 µM | [14] > 10 µM | [16] > 100 µM | [17] > 100 µM | [18] > 100 µM | [19] > 100 µM

O=[N+]([O-])c1ccc(-c2nc3cc(Cl)ccc3[nH]2)cc1
inactive: [1] 39.1 µM | [2] > 100 µM | [3] 69.5 µM | [4] 99.1 µM | [5] 32.7 µM | [7] 81.3 µM | [8] 78.5 µM | [9] 62.4 µM | [10] 50.1 µM | [11] 27.3 µM | [12] 46.2 µM | [13] 62.7 µM | [14] 43.6 µM | [15] > 100 µM | [16] 39.7 µM | [17] 60.7 µM | [18] 86.7 µM | [19] 25.5 µM

NNC1=N/C(=C\c2ccccc2O)C(=O)N1
inactive: [1] 38.5 µM | [2] > 100 µM | [3] 50.5 µM | [4] 37.9 µM | [5] 49.2 µM | [7] 36.2 µM | [8] 73.3 µM | [9] 47.1 µM | [10] 30.9 µM | [12] 24.5 µM | [13] 60.3 µM | [14] 40.7 µM | [15] 31.7 µM | [16] 42.2 µM | [17] 27.2 µM | [18] 20.7 µM | [19] 24 µM

Cn1c2c(c3ccccc31)CCN=C2C1CCCOC1=O (centres undefined)
inactive: [1] > 100 µM | [2] 32.6 µM | [3] 88.3 µM | [4] 47 µM | [5] > 100 µM | [6] > 100 µM | [7] > 100 µM | [8] > 100 µM | [9] > 100 µM | [10] > 100 µM | [11] > 100 µM | [12] > 100 µM | [13] > 100 µM | [14] > 100 µM | [16] > 100 µM | [17] > 100 µM | [18] > 100 µM

CNc1cc(Cl)ccc1C(=O)N1CCC[C@H]1CO
inactive: [1] > 100 µM | [2] > 100 µM | [3] > 100 µM | [4] > 100 µM | [5] > 100 µM | [7] > 100 µM | [8] > 100 µM | [9] > 100 µM | [10] > 100 µM | [11] > 100 µM | [12] > 100 µM | [13] > 100 µM | [14] > 100 µM | [15] > 100 µM | [16] 97.1 µM | [17] > 100 µM | [18] > 100 µM
